In patent US20130071897A1, “METHOD FOR CONTROLLING UNDESIRABLE BYPRODUCTS FORMATION CAUSED BY CONTAMINATING ORGANISMS IN THE PRODUCTION OF ETHANOL FROM SYNGAS” (COSKATA, INC., priority 2011, published 2013):
Several values for one entry are separate records, joined by “and”; a condition that tells them apart may be missing. Equal values may be shown once.

Key:
Format in all cases: cell-based
butyrogen population = test: 2-L continuous syngas fermenter with butyrogen-contaminated Clostridium autoethanogenum culture
Procedure: Additional experiments were conducted to determine the effect of the crotonyl derivatives in continuous fermentations containing butyrogen contamination. Compounds A and D were tested in a 2-L fermenter containing a seed culture from a 10,000 gallon bioreactor used in a large scale fermentation run.
To initiate the 2 liter fermentation a seed culture from the large scale fermenter was introduced into the 2 liter fermenter and grown on yeast extract to an OD greater than 1 at which time a substantial production of butyrogens was observed. The 2 liter fermenter was a Sartorius Biostat B Series fermenter that operated as a continuously stirred tank with a mixing speed of 200 rpm. After 24 hours of initial growth a gas stream having a composition 38% CO, 38% H2, 15% C02 and the balance CH4 was introduced into the fermenter. The fermentation was conducted at a temperature of 37° C., a pH of 5.30±0.05 and contained approximately 2 liters of fermentation media having a composition found in Table 8. Fresh fermentation media was continually added to the 2 liter fermenter at rate sufficient to establish a mean cell retention time of 5.8 days. The fermentation was allowed to progress and different concentrations of the compounds A and D were added to the fermentation as intermittent injections at different times. Each injection was allowed to wash out of the fermenter before next injection. The presence of acetate and butyrate compounds in the fermenter along with the OD of the fermentation media are shown in FIG. 3.
After approximately 500 hours of fermenter operation compound A was added directly into the fermenter to a concentration of 500 ppm when the OD was 1.82 and butyrate concentration was 4.5 g/L. Following introduction of the compound, the OD decreased rapidly by almost 50% in the first 24 hours and the butyrate concentration decreased by 20% in the same time period. Also in the first 24 hours the butanol content increased rapidly by 6-fold to 0.68 g/L, indicating rapid conversion of the butyric acid to butanol. The rate of conversion of the butyric acid and the dilution rate of the media combined to dramatically decrease the butyrate production rate until it was brought down to zero within 80 hours of initially adding compound A. (See FIG. 4) In addition the OD continued to decrease to a low of 0.54 after 80 hours.
After approximately 700 hours of fermenter operation and the washout of the first 500 ppm addition of compound A, another 50 ppm of compound A was added directly into the fermenter. A decrease in OD and butyrate concentration (See FIG. 3) followed the 50 ppm addition and continued for at least for the first 3 days.
After approximately another 8 days and the washout of the 50 ppm addition of compound A, the butyrate concentration increased to 2 g/L. At this time another 100 ppm of compound A was added directly into the fermenter approximately 890 hours into the run. […] After about 24 hours, the butyrate concentration began to decrease again declining almost 50% over the next 4 days. (See FIG. 3)
Fermenter operation was continued under the same operating conditions following the 100 ppm addition of compound A. After allowing 20 days for the complete wash out of compound A, 100 ppm of compound D was added directly into the fermenter approximately 1370 hours into the fermenter run. Upon the addition of compound D there was a sharp rise in the ethanol concentration and acetic acid concentration accompanied by a decrease in the butyrate production.
For 12 days after the first injection of compound D into the fermenter, the fermenter was allowed to wash out compound D. Then 500 ppm of compound D was injected directly into the fermenter after about 1660 hours of fermenter operation. (See FIG. 3) The resulting concentrations of the C2 and C4 alcohols and acids from the time of adding the 500 ppm of compound D are shown in Table 10.

C. carboxidivorans = test: Product profiles of C. carboxidivorans cultures by GC-MSD; details: 500 and 1000 ppm; 54 hour cultures
Procedure: Product profiles were determined on the C. carboxidivorans cultures that grew in the presence of compound A. A GC-MSD was performed on 54 hour cultures and product distributions were calculated based on the resultant areas of the output (See FIG. 2). In cultures with no compound A addition, the distribution of C2, C4 and C6 acids and alcohols was similar in both samples. As the compound A concentration increased the amount of C2, particularly the alcohols, increased. […] Thus, such crotonate derivatives can effectively limit the amount of butyl impurity accumulation in the fermentation zone from heteroacetogens which can compete effectively in syngas cultures with homoacetogenic bacteria.

[1] = system: Clostridium tyrobutyricum; test: Butyric acid by gas chromatography in Clostridium tyrobutyricum batch fermentations; details: 5 mM, duplicates A and B
Procedure: The concentration of butyric acid is determined by gas chromatography for several of the above samples at the stated points in time. The butyrate production is calculated based upon peak area calculations generated by the gas chromatograph. At 11 hours, the concentration of butyric acid for each of the controls is about 0.95 gram per liter, and the concentration of butyric acid for the samples containing 500 ppm of the inhibitor are about 0.6 gram per liter.
The concentration of butyric acid is determined by gas chromatography using the procedure set forth in Example 13. The control is reported only in Table 18.

[2] = 100 ppm compound D at approximately 1370 hours
[3] = 500 ppm compound D, 0 Hr after addition
[4] = 500 ppm compound D, 30 Hr after addition
[5] = 500 ppm compound D, 49 Hr after addition
[6] = 500 ppm compound D, 73 Hr after addition
[7] = 500 ppm compound D, 123 Hr after addition
[8] = 500 ppm compound D, 145 Hr after addition
[9] = 500 ppm compound D, 168 Hr after addition
[10] = 500 ppm compound D, 193 Hr after addition
[11] = 500 ppm compound D, 217 Hr after addition
[12] = 500 ppm compound D, 240 Hr after addition
[13] = 500 ppm compound A, 0.0 Hr after addition
[14] = 500 ppm compound A, 24.0 Hr after addition
[15] = 500 ppm compound A, 49.0 Hr after addition
[16] = 500 ppm compound A, 80.0 Hr after addition
[17] = 500 ppm compound A, 121.0 Hr after addition
[18] = 500 ppm compound A, 145.0 Hr after addition
[19] = 500 ppm compound A, first 24 hours
[20] = approximately 140 hours after 500 ppm addition of compound A

SMILES: O=C(O)C=C(C(F)(F)F)C(F)(F)F [D, 4,4,4-trifluoro-3-(trifluoromethyl)crotonic acid]
- Butanol concentration (butyrogen population; [2]): rose temporarily
- Butyrate Production (butyrogen population; [2]): decrease
- Ethanol concentration and acetic acid concentration (butyrogen population; [2]): sharp rise
- Inhibition of butyrogens versus homoacetogenic organisms (butyrogen population; 500 ppm compound D): butyrogens were specifically inhibited whereas the homoacetogenic organisms were not inhibited
- Acetic acid (butyrogen population; [3]): 8.72 g/L
- Butyric acid (butyrogen population; [3]): 1.51 g/L
- EtOH (butyrogen population; [3]): 0.55 g/L
- OD @600 nm (butyrogen population; [3]): 1.40
- n-Butanol (butyrogen population; [3]): 0.21 g/L
- Acetic acid (butyrogen population; [4]): 8.48 g/L
- Butyric acid (butyrogen population; [4]): 1.47 g/L
- EtOH (butyrogen population; [4]): 0.61 g/L
- OD @600 nm (butyrogen population; [4]): 1.35
- n-Butanol (butyrogen population; [4]): 0.23 g/L
- Acetic acid (butyrogen population; [5]): 8.64 g/L
- Butyric acid (butyrogen population; [5]): 1.44 g/L
- EtOH (butyrogen population; [5]): 0.69 g/L
- OD @600 nm (butyrogen population; [5]): 1.23
- n-Butanol (butyrogen population; [5]): 0.26 g/L
- Acetic acid (butyrogen population; [6]): 8.56 g/L
- Butyric acid (butyrogen population; [6]): 1.37 g/L
- EtOH (butyrogen population; [6]): 0.68 g/L
- OD @600 nm (butyrogen population; [6]): 1.12
- n-Butanol (butyrogen population; [6]): 0.26 g/L
- Acetic acid (butyrogen population; [7]): 8.72 g/L
- Butyric acid (butyrogen population; [7]): 1.41 g/L
- EtOH (butyrogen population; [7]): 0.53 g/L
- OD @600 nm (butyrogen population; [7]): 0.92
- n-Butanol (butyrogen population; [7]): 0.19 g/L
- Acetic acid (butyrogen population; [8]): 8.75 g/L
- Butyric acid (butyrogen population; [8]): 1.36 g/L
- EtOH (butyrogen population; [8]): 0.88 g/L
- OD @600 nm (butyrogen population; [8]): 1.12
- n-Butanol (butyrogen population; [8]): 0.26 g/L
- Acetic acid (butyrogen population; [9]): 8.83 g/L
- Butyric acid (butyrogen population; [9]): 1.11 g/L
- EtOH (butyrogen population; [9]): 0.95 g/L
- OD @600 nm (butyrogen population; [9]): 1.38
- n-Butanol (butyrogen population; [9]): 0.28 g/L
- Acetic acid (butyrogen population; [10]): 8.86 g/L
- Butyric acid (butyrogen population; [10]): 1.12 g/L
- EtOH (butyrogen population; [10]): 0.87 g/L
- OD @600 nm (butyrogen population; [10]): 1.18
- n-Butanol (butyrogen population; [10]): 0.24 g/L
- Acetic acid (butyrogen population; [11]): 9.05 g/L
- Butyric acid (butyrogen population; [11]): 1.13 g/L
- EtOH (butyrogen population; [11]): 0.84 g/L
- OD @600 nm (butyrogen population; [11]): 1.24
- n-Butanol (butyrogen population; [11]): 0.21 g/L
- Acetic acid (butyrogen population; [12]): 9.21 g/L
- Butyric acid (butyrogen population; [12]): 1.17 g/L
- EtOH (butyrogen population; [12]): 0.82 g/L
- OD @600 nm (butyrogen population; [12]): 1.25
- n-Butanol (butyrogen population; [12]): 0.21 g/L

SMILES: CCOC(=O)C=C(C(F)(F)F)C(F)(F)F [Compound A, ethyl 4,4,4-trifluoro-3-(trifluoromethyl)crotonate]
- Product distribution of C2, C4 and C6 acids and alcohols (C. carboxidivorans): virtually all the product observed was the C2 alcohol
- Effect on the butyrogen population shortly after addition (butyrogen population; 2-L butyrogenic reactor, 500, 50 and 100 ppm trials): inhibitory and bactericidal effect
- Concentration of ethanol and acetic acid (butyrogen population; 50 ppm compound A at approximately 700 hours): continued increase
- OD and butyrate concentration (butyrogen population; 50 ppm compound A at approximately 700 hours, at least first 3 days): decrease
- Ethanol concentration (butyrogen population; 100 ppm compound A at approximately 890 hours): began to immediately increase
- Decline of butyrate concentration (butyrogen population; 100 ppm compound A at approximately 890 hours, over 4 days, starting about 24 hours after addition): ~50%
- Acetic acid (butyrogen population; [13]): 3.237 g/L
- Butyric acid (butyrogen population; [13]): 4.5 g/L and 4.503 g/L
- Ethanol (butyrogen population; [13]): 0.026 g/L
- OD @600 nm (butyrogen population; [13]): 1.82
- n-Butanol (butyrogen population; [13]): 0.109 g/L
- Acetic acid (butyrogen population; [14]): 2.728 g/L
- Butyric acid (butyrogen population; [14]): 3.600 g/L
- Ethanol (butyrogen population; [14]): 0.266 g/L
- OD @600 nm (butyrogen population; [14]): 1.09
- n-Butanol (butyrogen population; [14]): 0.68 g/L and 0.681 g/L
- Acetic acid (butyrogen population; [15]): 2.333 g/L
- Butyric acid (butyrogen population; [15]): 3.074 g/L
- Ethanol (butyrogen population; [15]): 0.255 g/L
- OD @600 nm (butyrogen population; [15]): 0.76
- n-Butanol (butyrogen population; [15]): 0.601 g/L
- Acetic acid (butyrogen population; [16]): 1.959 g/L
- Butyric acid (butyrogen population; [16]): 2.542 g/L
- Ethanol (butyrogen population; [16]): 0.212 g/L
- OD @600 nm (butyrogen population; [16]): 0.54
- n-Butanol (butyrogen population; [16]): 0.497 g/L
- Acetic acid (butyrogen population; [17]): 2.446 g/L
- Butyric acid (butyrogen population; [17]): 1.842 g/L
- Ethanol (butyrogen population; [17]): 0.345 g/L
- OD @600 nm (butyrogen population; [17]): 0.75
- n-Butanol (butyrogen population; [17]): 0.513 g/L
- Acetic acid (butyrogen population; [18]): 4.082 g/L
- Butyric acid (butyrogen population; [18]): 1.645 g/L
- Ethanol (butyrogen population; [18]): 0.441 g/L
- OD @600 nm (butyrogen population; [18]): 1.17
- n-Butanol (butyrogen population; [18]): 0.311 g/L
- Decrease of OD (butyrogen population; [19]): ~50%
- Decrease of butyrate concentration (butyrogen population; [19]): 20%
- Increase of butanol content (butyrogen population; [19]): 6 fold
- Time until butyrate production rate was brought down to zero (butyrogen population; 500 ppm compound A, from initial addition): ≤ 80 h
- Acetic acid production (butyrogen population; [20]): dramatic rise
- Increase in ethanol (butyrogen population; [20]): over 100%
- OD recovery (butyrogen population; [20]): nearly recovered to its original level
- Butyrate Production ([1]; 4.5 Hours): 0.04 grams per liter
- Butyrate Production ([1]; 6 Hours): 0.06 grams per liter and 0.05 grams per liter
- Butyrate Production ([1]; 24 Hours): 0.10 grams per liter and 0.08 grams per liter
